{"source": "ChEMBL document CHEMBL1132546", "about": "“Na(+)-glucose cotransporter (SGLT) inhibitors as antidiabetic agents. 4. Synthesis and pharmacological properties of 4'-dehydroxyphlorizin derivatives substituted on the B ring” (1999)", "data": [{"experiment": "Compound was tested for urinary glucose excretion (mg/24 h) at 100 mg/Kg dose of compound given perorally", "type": "functional, Rattus norvegicus, Urine", "parameters": "unit: mg/24 h", "values": [{"smiles": "O=C(CCc1ccc2occc2c1)c1c(O)c(Cl)cc(Cl)c1O[C@@H]1O[C@H](CO)[C@@H](O)[C@H](O)[C@H]1O", "Urinary glucose excretion": 5}, {"smiles": "CC(=O)Oc1cc(C)cc(O[C@@H]2O[C@H](CO)[C@@H](O)[C@H](OC(C)=O)[C@H]2OC(C)=O)c1C(=O)CCc1ccc2occc2c1", "Urinary glucose excretion": 1450}, {"smiles": "Cc1cc(O)c(C(=O)CCc2ccc3occc3c2)c(O[C@@H]2O[C@H](COC(=O)OC(C)C)[C@@H](O)[C@H](O)[C@H]2O)c1", "Urinary glucose excretion": 980}, {"smiles": "COc1cc(O)c(C(=O)CCc2ccc3occc3c2)c(O[C@@H]2O[C@H](CO)[C@@H](O)[C@H](O)[C@H]2O)c1", "Urinary glucose excretion": 38}, {"smiles": "CCc1ccc(O[C@@H]2O[C@H](CO)[C@@H](O)[C@H](O)[C@H]2O)c(C(=O)CCc2ccc3occc3c2)c1O", "Urinary glucose excretion": 1}, {"smiles": "CCOC(=O)OC[C@H]1O[C@@H](Oc2cc(C)cc(O)c2C(=O)CCc2ccc3occc3c2)[C@H](O)[C@@H](O)[C@@H]1O", "Urinary glucose excretion": 805}, {"smiles": "C=CCc1ccc(O[C@@H]2O[C@H](CO)[C@@H](O)[C@H](O)[C@H]2O)c(C(=O)CCc2ccc3occc3c2)c1O", "Urinary glucose excretion": 5}, {"smiles": "COCCOC(=O)OC[C@H]1O[C@@H](Oc2cc(C)cc(O)c2C(=O)CCc2ccc3occc3c2)[C@H](O)[C@@H](O)[C@@H]1O", "Urinary glucose excretion": 817}, {"smiles": "COC(=O)O[C@H]1[C@H](O)[C@@H](O)[C@H](Oc2cc(C)cc(O)c2C(=O)CCc2ccc3occc3c2)O[C@@H]1CO", "Urinary glucose excretion": 1407}, {"smiles": "CC(C)c1cc(O)c(C(=O)CCc2ccc3occc3c2)c(O[C@@H]2O[C@H](CO)[C@@H](O)[C@H](O)[C@H]2O)c1", "Urinary glucose excretion": 128}, {"smiles": "CCCc1cc(O)c(C(=O)CCc2ccc3occc3c2)c(O[C@@H]2O[C@H](CO)[C@@H](O)[C@H](O)[C@H]2O)c1", "Urinary glucose excretion": 27}, {"smiles": "CCc1cc(O)c(C(=O)CCc2ccc3occc3c2)c(O[C@@H]2O[C@H](CO)[C@@H](O)[C@H](O)[C@H]2O)c1", "Urinary glucose excretion": 864}, {"smiles": "O=C(CCc1ccc2occc2c1)c1c(O)cc(O)cc1O[C@@H]1O[C@H](CO)[C@@H](O)[C@H](O)[C@H]1O", "Urinary glucose excretion": 38}, {"smiles": "CC(=O)OC[C@H]1O[C@@H](Oc2cc(C)cc(OC(C)=O)c2C(=O)CCc2ccc3occc3c2)[C@H](O)[C@@H](O)[C@@H]1O", "Urinary glucose excretion": 183}, {"smiles": "CC(=O)O[C@H]1[C@H](Oc2cc(C)cc(O)c2C(=O)CCc2ccc3occc3c2)O[C@H](CO)[C@@H](O)[C@@H]1O", "Urinary glucose excretion": 482}, {"smiles": "O=C(CCc1ccc2occc2c1)c1c(O)cc(Cl)cc1O[C@@H]1O[C@H](CO)[C@@H](O)[C@H](O)[C@H]1O", "Urinary glucose excretion": 8}, {"smiles": "COC1(C)OC[C@H]2O[C@@H](Oc3cc(C)cc(O)c3C(=O)CCc3ccc4occc4c3)[C@H](O)[C@@H](O)[C@@H]2O1", "note": "(some centres undefined)", "Urinary glucose excretion": 729}, {"smiles": "COC(=O)OC[C@H]1O[C@@H](Oc2cc(C)cc(O)c2C(=O)CCc2ccc3occc3c2)[C@H](O)[C@@H](O)[C@@H]1O", "Urinary glucose excretion": 1192}, {"smiles": "COCC(=O)OC[C@H]1O[C@@H](Oc2cc(C)cc(O)c2C(=O)CCc2ccc3occc3c2)[C@H](O)[C@@H](O)[C@@H]1O", "Urinary glucose excretion": 721}, {"smiles": "CC(=O)OC[C@H]1O[C@@H](Oc2cc(C)cc(O)c2C(=O)CCc2ccc3occc3c2)[C@H](O)[C@@H](O)[C@@H]1O", "Urinary glucose excretion": 540}, {"smiles": "CC(=O)O[C@H]1[C@H](Oc2cc(C)cc(O)c2C(=O)CCc2ccc3occc3c2)O[C@H](CO)[C@@H](O)[C@@H]1OC(C)=O", "Urinary glucose excretion": 349}, {"smiles": "Cc1cc(O)c(C(=O)CCc2ccc3occc3c2)c(O[C@@H]2O[C@H](CO)[C@@H](O)[C@H](O)[C@H]2O)c1", "Urinary glucose excretion": 935}, {"smiles": "Cc1ccc(O)c(C(=O)CCc2ccc3occc3c2)c1O[C@@H]1O[C@H](CO)[C@@H](O)[C@H](O)[C@H]1O", "Urinary glucose excretion": 5}, {"smiles": "O=C(CCc1ccc2occc2c1)c1c(O)cccc1O[C@@H]1O[C@H](CO)[C@@H](O)[C@H](O)[C@H]1O", "Urinary glucose excretion": 321}]}]}
